{"source": "patent US20150376216A1", "about": "“SUGAR-ANALOG PHOSPHORUS-CONTAINING HETEROCYCLES HAVING AN ANTI-METASTATIC ACTIVITY” (CENTRE NATIONAL DE LA RECHERCHE SCIENTIRIQUE, priority 2013, published 2015)", "key": {"A431 line": {"system": "A431 line", "test": "MTT antiproliferative test, A431", "format": "cell-based, human", "conditions": "Homo sapiens, A-431; A431; 72 hours, MTT; read-out: IC50, inhibition of proliferation", "method": "(§1) The lines MDAMB-435 and A431 are seeded at a density of 3000 cells per well in 96-well plates. After 24 hours, compounds 4.2a and 5.6d resuspended in 100% DMSO are added at concentrations of 0-0.001-0.010-0.1-1-10-50 μM for a final constant amount of DMSO of 0.3%. The cultures are maintained for a further 72 hours and an MTT colorimetric test is then performed. 100 μl of a solution of MTT at 5 mg/ml in PBS are added to the culture medium, which is left to incubate for 3 hours. The culture medium is removed and the cells are lyzed by adding 100 μL of a 4 mM HCl solvent, 0.1% Nondet P-40 (NP40) in isopropanol. The yellow tetrazolium MTT salt (3-(4,5-dimethylthiazol-2-yl)-2,5-diphenyl tetrazolium bromide), when it is reduced by the mitochondrial succinate dehydrogenase of active live cells, forms a blue-violet formazan product. The medium then changes from yellow to blue-violet. The intensity of this coloration at 590 nm is proportional to the number of live cells present during the test and gives an indication of the metabolic activity of these cells.\n(§2) Table 1 gives the concentration values for 50% inhibition of proliferation (IC50) for compounds 4.2a and 5.6d on lines derived from bowel cancer (CaCo2), skin cancer (A431, MDAMB-435, B16F10), breast cancer (MDAMB-431), […] (HuH7), prostate cancer (DU145) and brain cancer (SNB75, Gli4, Gli7)."}, "CaCo2": {"system": "CaCo2", "test": "MTT antiproliferative test, CaCo2", "format": "cell-based", "conditions": "Homo sapiens, Caco-2, read-out: IC50, inhibition of proliferation", "method": "as §1, §2"}, "MDAMB-231": {"system": "MDAMB-231", "test": "MTT antiproliferative test, MDAMB-231", "format": "cell-based", "conditions": "Homo sapiens, MDA-MB-231, read-out: IC50, inhibition of proliferation", "method": "as §1, §2"}, "HuH7": {"system": "HuH7", "test": "MTT antiproliferative test, HuH7", "format": "cell-based", "conditions": "Homo sapiens, Huh-7, read-out: IC50, inhibition of proliferation", "method": "as §1, §2"}, "B16F10": {"system": "B16F10", "test": "MTT antiproliferative test, B16F10", "format": "cell-based", "conditions": "Mus musculus, B16-F10, read-out: IC50, inhibition of proliferation", "method": "as §1, §2"}, "DU145": {"system": "DU145", "test": "MTT antiproliferative test, DU145", "format": "cell-based", "conditions": "Homo sapiens, DU-145, read-out: IC50, inhibition of proliferation", "method": "as §1, §2"}, "C6 glioblastoma line": {"system": "C6 glioblastoma line", "test": "MTT antiproliferative test, C6", "format": "cell-based", "conditions": "Rattus norvegicus, read-out: IC50, inhibition of proliferation", "method": "(§3) Several cancer cell lines were used for the in vivo or in vitro biological tests: • SNB75 is a human glioblastoma line derived from a primary culture, i.e. derived from a primary malignant cancer tumor. It forms part of the panel of 59 cancer lines referenced by the NCI. Its Cosmic reference number published by the Welcome Trust Sanger Institute is 905982. This line was supplied by a person (M.D. Ph.D of the department of “Radiation Oncology”, Stanford University Medical Center). It was cultured in Ham's F-12 and DMEM (1/1) supplemented with 10% fetal bovine serum. The experiments were performed with cells in the exponential growth phase. • Gli4 (or Gli4F11) and Gli7 are cultures of cancer strain cells derived from human glioblastomas (primary cultures). These lines are CD133^+, CD15^+ which are multipotent and tumorigenic in animals. They were established by J. P. Hugnot (INM INSERM U-1051 Eq. 4), and described in Guichet, P. O. et al, Glia 2013, 61(2), 225-239; • C6 is a rat glioblastoma line. It is referenced in the ATCC under the reference CCL-107. • MDAMB-435 is a melanoma line derived from a mammary melanoma. It forms part of the panel of 59 cancer lines referenced by the NCI. It is referenced at the ATCC under the reference HTB-129. It was cultured in Ham's F-12 and DMEM (1/1) supplemented with 10% fetal bovine serum. […]"}, "SNB75 glioblastoma line": {"system": "SNB75 glioblastoma line", "test": "MTT antiproliferative test, SNB75", "format": "cell-based", "conditions": "Homo sapiens, SNB-75, read-out: IC50, inhibition of proliferation", "method": "as §3"}, "Gli7": {"system": "Gli7", "test": "MTT antiproliferative test, Gli7", "format": "cell-based", "conditions": "Homo sapiens, read-out: IC50, inhibition of proliferation", "method": "as §3"}, "Acute in vivo toxicity": {"test": "Acute in vivo toxicity", "conditions": "healthy mice; 50, 25, 10, 5 and 1 mg/kg; maximum dose 50 mg/kg", "method": "Studies of the acute toxicity of compounds 3.48a and 4.2a were performed on healthy mice for a concentration range of 50, 25, 10, 5 and 1 mg/kg."}, "MDAMB-435 cells": {"system": "MDAMB-435 cells", "test": "MDAMB-435 subcutaneous model", "format": "in vivo, mice", "method": "A suspension of 1×10^6 MDAMB-435 cells in 100 μl of sterile PBS (phosphate-buffered saline, supplied by Fisher) was injected into each mouse (subcutaneous administration, with anesthesia, in the mammary gland of the left hind quarter). Once a control pregroup of three mice presented the first metastases (liver, intestine, ovary), the protocol was conducted with […] of eight mice. The five groups of mice were treated using one of the five formulations described below:\nGroup A: Treatment by injection of 100 μl of NaCl (control N° 1).\nGroup B: Treatment by injection of 100 to 150 μl according to the weight of the mice of formulation 2 not containing compound 4.2a (control N° 2).\nGroup C: Treatment with compound 4.2a at a rate of 10 mg/kg with volumes of 100 to 150 μl of formulation 2 depending on the weight of the mice.\nGroup D: Treatment with compound 4.2a at a rate of 5 mg/kg with volumes of 100 to 150 μl of formulation 2 depending on the weight of the mice.\nEach batch was treated by intravenous injection into the caudal vein of 100 to 150 μl of solution (precision syringe and G25X1 needle ultrafine wall, VWR). Three injections per week for four weeks were performed. The mice were weighed at each injection. The mice were sacrificed after four weeks, and the tumors and organs (liver, kidney, spleen, brain, intestine, heart, muscles) were removed. A histological analysis was performed on these organs."}, "[1]": {"test": "Solubility / formulation behaviour", "format": "physicochemical", "method": "The following two formulations are particularly suited to compounds 3.48a and 4.2a and allow their in vivo administration, at concentrations of about 20-100 mg/kg, intravenously: […]"}, "[2]": {"conditions": "10 and 5 mg/kg i.v. (groups C and D), three injections per week for four weeks"}}}
{"smiles": "CC1(C)O[C@H]2[C@@H]([C@H]3COC(C)(C)O3)O[P@](=O)(c3ccccc3)[C@@H](OC(=O)c3ccccc3)[C@H]2O1", "note": "[Compound 4.2a, (SPRSRR)-3-benzoate-4-(2,2-dimethyl-[1,3]dioxolan-4-yl)-2,2-dimethyl-2-oxo-2-phenyl-tetrahydro-2λ^5-[1,2]oxaphosphinane]", "values": [{"measurement": "IC50", "setting": "A431 line", "value": 4.35, "unit": "µM"}, {"measurement": "IC50", "setting": "CaCo2", "value": "> 100", "unit": "µM"}, {"measurement": "IC50", "setting": "MDAMB-231", "value": 1.16, "unit": "µM"}, {"measurement": "IC50", "setting": "HuH7", "value": "> 100", "unit": "µM"}, {"measurement": "IC50", "setting": "B16F10", "value": 13.5, "unit": "µM"}, {"measurement": "IC50", "setting": "DU145", "value": "> 100", "unit": "µM"}, {"measurement": "IC50", "setting": "C6 glioblastoma line", "value": 8.51, "unit": "µM"}, {"measurement": "IC50", "setting": "SNB75 glioblastoma line", "value": 9.54, "unit": "µM"}, {"measurement": "IC50", "setting": "Gli7", "value": 2.71, "unit": "µM"}, {"measurement": "Mortality, acute toxicity", "setting": "Acute in vivo toxicity", "value": "No mortality was observed"}, {"measurement": "Metastases in the ovaries (FIG. 4)", "setting": "MDAMB-435 cells; 10 and 5 mg/kg (groups C and D)", "value": "absence of metastases"}, {"measurement": "Number of metastases per mouse (FIG. 5)", "setting": "MDAMB-435 cells; 10 and 5 mg/kg (groups C and D), controls predominantly more than two", "value": "none of the mice treated with compound 4.2a (groups C and D) developed more than two metastases"}, {"measurement": "Metastatic development (size of metastases)", "setting": "MDAMB-435 cells; [2]", "value": "a reduction in metastatic development (small-sized metastases)"}, {"measurement": "Number of metastases", "setting": "MDAMB-435 cells; [2]", "value": "a large reduction in the number of metastases"}, {"measurement": "Mass distribution of secondary tumors (FIG. 6)", "setting": "MDAMB-435 cells; as a function of the treatment conditions", "value": "reduced the development of metastases"}, {"measurement": "Complexation in cyclodextrins", "setting": "[1]", "value": "non-complexible in cyclodextrins"}, {"measurement": "Solubility", "setting": "[1]; water, water-soluble solvents", "value": "insoluble in water, in numerous water-soluble solvents"}]}
